Assay results published in US20050020482A1, “Methods for modulating gap junctions” (priority 2001, published 2005).

Tests used:
[1] = tested on: IMR32 neuroblastoma cells; assay: Growth of IMR32 neuroblastoma cells in vitro (population size, Hoechst fluorometry); format: cell-based; set-up: population size, percent of matching controls: concentration or dose not given beside the values; conditions: for population size, percent of matching controls: 24 replica
Description: Legend: IMR32 neuroblastoma cells were seeded in 96 well plates at a density of 1000 cells per well. Treatments were as follows: Control cells are untreated and growing in a MEM-based proliferation medium. […] A2+RA treatment consisted of medium A2 supplemented with all trans retinoic acid (RA) 1 uM on day 2; A1+RA consist of RA supplementation 1 uM in the absence of the cAMP analog. The population size (24 replica per treatment) was determined by a procedure using Hoechst as a reagent and cytofluor (BioRad) fluorometer for measurement. The results are expressed as a percent of matching controls.

[2] = tested on: gap junction function in IMR32; format: cell-based
Description: The classical scrape loading test was used to monitor the function of gap junction channels. Briefly, a cut is performed with a fine needle in sub-confluent cell cultures (refer reverse phases micrograph 5B). The culture is then covered with a film of fluorescent dye Lucifer yellow which is not cell permeant. The dye however penetrates the wounded cells along the scrape. From these loaded cells the dye can only be transferred to neighbor cells through the gap junction channels. The number of cell rows that receive the dye after a given time (3 min) provides an estimation of the gap junction function. Primary antibodies specific to PKC isoforms alpha beta I and beta II were introduced individually or in combination (as shown) by endocytosis using a kit from Molecular Probe following the supplier instructions. Controls for the introduction of the specific antibodies were performed by fixing and permeabilizing the cells then staining them with a secondary antibody conjugated to Texas red (Johnson labs).
All documents referred to are incorporated herein by reference.

Row | SMILES | population size, percent of matching controls ([1]; day 1) [%] | population size, percent of matching controls ([1]; day 2) [%] | population size, percent of matching controls ([1]; day 3) [%] | population size, percent of matching controls ([1]; day 4) [%] | population size, percent of matching controls ([1]; day 5) [%] | population size, percent of matching controls ([1]; day 6) [%] | effect on growth (in words) ([1]; legend of Table 1) | cell death [2] | gap junction function [2]
1 | CC1=C(/C=C/C(C)=C/C=C/C(C)=C/C(=O)O)C(C)(C)CCC1 [all trans retinoic acid (RA), all trans retinoic acid] | 84 | 87 | 90 | 63 | 70 | 68 | not very efficient in affecting growth |  | 
2 | Oc1ccc(-c2nc(-c3ccncc3)c(-c3ccc(F)cc3)[nH]2)cc1 [SB202190] |  |  |  |  |  |  |  | died of apoptosis | Gap junction function resuming
